Source: ChEMBL document CHEMBL4406909, “Synthesis and evaluation of 1,3,5-triazine derivatives as sunscreens useful to prevent skin cancer” (Bioorg Med Chem Lett, 2019)

Key:
[1] = Antioxidant activity assessed as DPPH free radical scavenging activity at 100 uM incubated for 60 mins by spectrophotometric method relative to control; assay type: functional
[2] = Thermal stability of compound in DMSO/methanol assessed as onset temperature by UV spectroscopic method; assay type: physicochemical
[3] = Thermal stability of compound in DMSO/methanol assessed as mass loss by UV spectroscopic method; assay type: physicochemical; settings: read-out: Drug degradation
[4] = Antioxidant activity assessed as DPPH free radical scavenging activity at 400 uM incubated for 60 mins by spectrophotometric method relative to control; assay type: functional
[5] = Antioxidant activity assessed as DPPH free radical scavenging activity at 200 uM incubated for 60 mins by spectrophotometric method relative to control; assay type: functional
[6] = Photoprotection activity against UV radiation
[7] = Antioxidant activity assessed as DPPH free radical scavenging activity at 300 uM incubated for 60 mins by spectrophotometric method relative to control; assay type: functional
[8] = Thermal stability of compound in DMSO/methanol assessed as decomposition temperature by UV spectroscopic method; assay type: physicochemical
[9] = Photoprotection activity against UV radiation assessed as ratio of UVA to UVB

| SMILES | Activity [1] [%] | T [2] [°C] | degraded [3] [%] | Activity [4] [%] | Activity [5] [%] | SPF [6] | UVAPF [6] | Activity [7] [%] | T [8] [°C] | Ratio [9] |
| --- | --- | --- | --- | --- | --- | --- | --- | --- | --- | --- |
| O=C(N/N=C/c1ccc(Oc2nc(Oc3ccc(/C=N/NC(=O)c4cccc(O)c4)cc3)nc(Oc3ccc(/C=N/NC(=O)c4cccc(O)c4)cc3)n2)cc1)c1cccc(O)c1 | 4.2 | 248.22 | 18.7 | 6.3 | 4.4 | 4 | 2 | 5.8 | 297.87 | 0.4 |
| O=C(N/N=C/c1ccc(Oc2nc(Oc3ccc(/C=N/NC(=O)c4ccncc4)cc3)nc(Oc3ccc(/C=N/NC(=O)c4ccncc4)cc3)n2)cc1)c1ccncc1 | 0 | 235.6 | 36.8 | 6.1 | 0.5 | 5 | 3 | 2.4 | 236.25 | 0.4 |
| CCCCC(CC)COC(=O)c1ccc(Nc2nc(Nc3ccc(C(=O)OCC(CC)CCCC)cc3)nc(Nc3ccc(C(=O)OCC(CC)CCCC)cc3)n2)cc1 (stereo not given) | 0 | 119.99 | 68.7 | 3.5 | 1.6 | 3 | 3 | 2.6 | 232.29 | 0.8 |
| O=C(N/N=C/c1ccc(Oc2nc(Oc3ccc(/C=N/NC(=O)c4ccc([N+](=O)[O-])cc4)cc3)nc(Oc3ccc(/C=N/NC(=O)c4ccc([N+](=O)[O-])cc4)cc3)n2)cc1)c1ccc([N+](=O)[O-])cc1 | 0.5 | 291.8 | 37.3 | 3.5 | 2.2 | 4 | 3 | 2.7 | 304.87 | 0.8 |
| O=C(N/N=C/c1ccc(Oc2nc(Oc3ccc(/C=N/NC(=O)c4ccccc4O)cc3)nc(Oc3ccc(/C=N/NC(=O)c4ccccc4O)cc3)n2)cc1)c1ccccc1O | 0 | 264.89 | 19.6 | 0.8 | 0 | 17 | 13 | 0.3 | 269.71 | 0.7 |
| O=C(N/N=C/c1ccc(Oc2nc(Oc3ccc(/C=N/NC(=O)c4ccccc4)cc3)nc(Oc3ccc(/C=N/NC(=O)c4ccccc4)cc3)n2)cc1)c1ccccc1 | 0.9 | 275.89 | 36.7 | 2.4 | 1.3 | 9 | 5 | 2 | 294.21 | 0.6 |
| O=C(N/N=C/c1ccc(Oc2nc(Oc3ccc(/C=N/NC(=O)c4ccc(O)cc4O)cc3)nc(Oc3ccc(/C=N/NC(=O)c4ccc(O)cc4O)cc3)n2)cc1)c1ccc(O)cc1O | 55.3 | 218.88 | 39.8 | 75.6 | 74.2 | 3 | 2 | 75.1 | 309.94 | 0.5 |
| CC(C)(C)c1ccc(C(=O)N/N=C/c2ccc(Oc3nc(Oc4ccc(/C=N/NC(=O)c5ccc(C(C)(C)C)cc5)cc4)nc(Oc4ccc(/C=N/NC(=O)c5ccc(C(C)(C)C)cc5)cc4)n3)cc2)cc1 | 4 | 324.37 | 41.2 | 5.9 | 4.3 | 14 | 7 | 4.8 | 326.22 | 0.5 |
| Oc1ccc(/C=C/c2cc(O)cc(O)c2)cc1 [RESVERATROL] | 46.8 | 263.46 | 32.9 | 62.2 | 55.9 | 2 | 2 | 56.2 | 266.95 | 0.7 |
| O=C(N/N=C/c1ccc(Oc2nc(Oc3ccc(/C=N/NC(=O)c4ccc(O)cc4)cc3)nc(Oc3ccc(/C=N/NC(=O)c4ccc(O)cc4)cc3)n2)cc1)c1ccc(O)cc1 | 4.4 | 267.35 | 11.6 | 8.2 | 5.6 | 7 | 4 | 6.7 | 272.15 | 0.5 |
